Test results as given in patent US3954793A, “1-(2-Propynyl)-1 H-indazole compounds” (priority 1973, dated 1976).
Where two headings read alike, the source gives them in different places.

Legend:
[1] = tested on: Wilson strain house flies; format: in vivo, Wilson strain (susceptible); conditions: for Contact Synergistic Ratio, Pyrolan: LC50 pyrolan alone / LC50 with synergist
Description: The required solutions of the insecticide and of the synergist compound were prepared in acetone at a concentration of 1 milligram per milliliter. One-pint wide mouth glass jars were coated with the appropriate insecticide-synergist combination by rolling the jars containing aliquots of the appropriate solutions diluted to three milliliters with acetone to deposit, by evaporation, a film of the test materials. The flies were transferred under carbon dioxide anesthesia and held in the jar at room temperature. Perforated aluminum foil was used to cover the jars and to hold cotton saturated with 10% sugar solution. Counts were made at intervals, but the recorded mortality was based on 24-hour kill, rather than knockdown. All prostrate non-moving flies were considered dead. A determination was then made of the contact synergistic ratio [SR], which is the ratio of the LC50 of insecticide alone to the LC50 of the insecticide when applied together with the synergist. The LC50 of the insecticide was estimated from a log-probit plot of percent kill versus dosage. […] The LC50 of the combination of insecticide and synergist was determined at a synergist to insecticide parts by weight ratio of five to one.

[2] = tested on: Swiss albino, white male mice; test: acute toxicity and synergism of acute toxicity in mice; format: in vivo; conditions: 48 hours, eight mice
Description: To determine the acute toxicity of dimetilan alone, eight dosage levels of Dimetilan, ranging from 4 to 32 mg per kg were applied to eight, Swiss, albino, white, male mice per dosage level. The mice weighed approximately 23 to 27 grams and were five to six weeks old. The Dimetilan was administered intraperitoneally in 0.1 ml of corn oil one hour after the administration of the same dose of corn oil alone.
To determine the acute toxicity of the synergist alone, various synergists were administered intraperitoneally at a dose of 1000 mg/kg to each of a group of eight mice. The number of animals dead at the end of 72 hours is reported in the left hand column of Table XXXXVI.
The synergism of the acute toxicity of Dimetilan by various synergists was determined by tests on Swiss albino, white male mice aged five to six weeks and weighing 23 to 27 grams. The synergists and insecticides were dissolved in corn oil and the drugs were dissolved in distilled water. All compounds were administered intraperitoneally by injection in the lower quadrent of the abdomen. The synergist was administered in 0.1 ml of corn oil one hour prior to administration of the insecticide. Eight mice were treated, per dosage, with each synergist. The mice were watched for a minimum of 6 hours while held in a glass jar with bedding individually after intraperitoneal injection of the test solutions. Lethality was noted, the animals were weighed and transferred in cages, and food and water were supplied. Control mice were given 0.1 ml of corn oil at the time of administration of the synergist to the test mice and 0.1 ml corn oil plus Dimetilan at the time of administration of the insecticide to the test mice.
By the same procedure, the synergism of acute toxicity of GS 13005, Secobarbital and 6-dimethylamino-4,4-diphenyl-3-heptanone [Methadone] was determined.

male mice = test: extension of sleeping time of depressant drugs by synergists; format: in vivo, male mice (Swiss albino white); conditions: for Mean Sleeping Time, Noludar / Relative Sleeping Time, Noludar: Noludar 110 mg/kg; for Relative Sleeping Time, Noludar / Relative Sleeping Time, Secobarbital: treated/control; for Mean Sleeping Time, Secobarbital / Relative Sleeping Time, Secobarbital: Secobarbital 37 mg/kg
Description: The selectivity of the synergist compounds of this invention is illustrated by the results of sleeping-time extension tests and of acute toxicity tests on Swiss albino white male mice.
The effect of various synergist compounds on sleeping time of sodium secobarbital [Secobarbital] and of 3,3-diethyl-5-methyl-2,4-dioxypiperidine [Noludar] was determined by administering the drug, with and without synergist, to approximately 38-day old male mice weighing from 25 to 30 grams. Synergists were administered in each of two doses, 74.0 mg/kg (dilution being 2.0 mg/0.1 ml corn oil), and 110.0 mg/kg (dilution 3.0 mg/0.1 ml oil). Secobarbital was administered at a dose of 37.0 mg/kg (dilution 1.0 mg/0.1 ml water). Noludar was administered at a dose of 110.0 mg/kg (dilution 3.0 mg/0.1 ml water). The synergist was administered one hour prior to administration of the Secobarbital or Noludar. Secobarbital and Noludar sleeping times were obtained for both the control (drug only) and the treated (synergist plus drug) mice by noting the time lapse between the administration of the drug and the recovery of the righting reflex, i.e. when the animal regains conciousness and can walk up an inclined wooden tray with coordination. The relative sleeping time (R.S.) was noted. The R.S. is the extended sleeping time in the treated mice (synergist plus drug) divided by the sleeping time in the control mice (drug only). The mean sleeping time for the treated mice and the R.S. are shown on Table XXXXIV for various synergist compounds.

[3] = tested on: IN/WHO strain house flies; test: topical application, percent kill after 24 hours, susceptible IN/WHO strain; format: in vivo, female); conditions: for percent kill after 24 hours, synergist alone (GS 13005 part of Table XXXI): GS 13005 0, synergist 1 μg/fly; for percent kill after 24 hours, with GS 13005: GS 13005 0.10 + synergist 0.50 μg/fly; for percent kill after 24 hours, with Mobam: Mobam 0.20 + synergist 1 μg/fly; for percent kill after 24 hours, synergist alone: insecticide 0, synergist 1 μg/fly
Description: (§1) In Table IX, and in the tables following it, the doses of topically applied insecticides and of synergists unless otherwise noted are expressed as micrograms per fly (μg/fly).
(§2) The synergistic effect of O-(2-propynyl) oximes with mobam was determined from topical application tests on susceptible, female, IN/WHO strain house flies and from tests on resistant, female, Rutgers A strain house flies. The synergist and insecticide were dissolved in ACS Grade acetone in such quantities that a 1.0 μ liter volume applied to the thorax of 3-to-5 day old CO2 -anesthetized female adult house flies contained the desired dosage. After being treated, the flies were confined, 10 to a plaster petri dish, with 3-5 dishes/treament, and held for 24-hr. observation of mortality. Reconstituted skim milk on cotton dental wicks was provided during the holding period. The percent kills after 24 hours are shown in Table X for the IN/WHO strain and Table XI for the Rutgers A strain.
(§3) The synergistic effect of benzyl 2-propynyl ethers with mobam was determined from topical application tests on IN/WHO and Rutgers A strain houseflies, following the procedure of Example 5. The percent kills after 24 hours are shown in Table XIV for the IN/WHO strain and in Table XV for the Rutgers A strain.
The effects of varying the insecticide dose and the synergist-insecticide ratio are further illustrated, with synergist compounds II-D, II-E, II-F and Mobam insecticide, in Tables XVI, XVII and XVIII. […]
The effect on IN/WHO flies of synergist compound IV-C, identified in Table IV, with mobam was determined by the topical application procedure of Example 5. […]
(§4) The synergistic effect with GS 13005 of compounds I-A, I-B, I-D, I-E, I-F, I-G and I-I was determined from topical application tests to IN/WHO strain, Rutgers A strain and polyvalent CH strain houseflies using the procedures of Example 5. The percent kills of the IN/WHO strain flies after 24 hours are shown in Table XXVIII; of the Rutgers A strain, in Table XXIX; and of the polyvalent CH strain, in Table XXX. The doses of insecticide alone to the CH strain files caused 10-40% mortality.
The synergistic effect with Diazinon and GS 13005 of various of the benzyl 2-propynyl ethers identified in Tables II and IIa was determined by topical application tests on IN/WHO strain, and Rutgers A strain and polyvalent, resistant, CH strain houseflies using the procedures of Example 5. The percent kills after 24 hours of IN/WHO strain flies are shown in Table XXXI; of Rutgers A strain flies, in Table XXXII; and of CH strain flies, in Table XXXIII. The doses of insecticide alone to the CH strain flies caused 10-40% mortality. […]
(§5) The synergistic effect on IN/WHO strain flies and Rutgers A strain flies of compound IV-C with GS 13005 and with Diazinon was determined by the topical application procedure of Example 5. The percent kills of IN/WHO strain flies after 24 hours are shown in Tables XXXVI and XXXVII; the percent kills of Rutgers A strain flies are shown in Tables XXXVIII and XXXIX.

[4] = tested on: Rutgers A strain house flies; test: topical application, percent kill after 24 hours, resistant Rutgers A strain; format: in vivo, female); conditions: for percent kill after 24 hours, with GS 13005: GS 13005 1.0 + synergist 5.0 μg/fly; for percent kill after 24 hours, synergist alone: insecticide 0, synergist 5.0 μg/fly
Description: as §1, §2, §3
The synergistic effect with Diazinon of compounds I-B, I-D, I-F, I-G, I-H and I-I, identified in Tables I and Ia, was determined from topical application tests on IN/WHO strain houseflies and on Rutgers A strain houseflies by the procedure of Example 5. The percent kills after 24 hours are shown in Table XXV for the IN/WHO strain and Table XXVI for the Rutgers A strain.
as §4
The synergistic effect with Diazinon and GS 13005 of various of the benzyl 2-propynyl ethers identified in Tables II and IIa was determined by topical application tests on IN/WHO strain, and Rutgers A strain and polyvalent, resistant, CH strain houseflies using the procedures of Example 5. The percent kills after 24 hours of IN/WHO strain flies are shown in Table XXXI; of Rutgers A strain flies, in Table XXXII; and of CH strain flies, in Table XXXIII. The doses of insecticide alone to the CH strain flies caused 10-40% mortality.
as §5

[5] = synergist to insecticide 5:1 by weight
[6] = Dimetilan 8 + synergist 240 mg/kg i.p.
[7] = synergist 110 mg/kg one hour prior
[8] = synergist 74 mg/kg one hour prior
[9] = Dimetilan 8 + synergist 80 mg/kg i.p.

Row | SMILES | Contact Synergistic Ratio, Pyrolan [1, 5] | Contact Synergistic Ratio, Carbaryl ([1]; in vivo) | number of mice dead, with Dimetilan [2, 6] | Mean Sleeping Time, Noludar (male mice; [7]) [min] | Relative Sleeping Time, Noludar (male mice; synergist 110 mg/kg) | Mean Sleeping Time, Secobarbital (male mice; [7]) [min] | Relative Sleeping Time, Secobarbital (male mice; synergist 110 mg/kg) | further results
1 | C#CCON=Cc1ccc(N(C)C)cc1 [I-C] | 20 | 200 | 0 | 34 | 1.0 | 108 | 1.8 | Mean Sleeping Time, Secobarbital (male mice; [8]): 30 min; Relative Sleeping Time, Secobarbital (male mice; synergist 74 mg/kg): 1.1
2 | C#CCOCc1ccc(Cl)cc1 [II-A] | 7 | 50 | – | – | – | – | – | –
3 | C#CCOCc1ccc(Cl)cc1Cl [II-B] | 15 | 50 | – | – | – | – | – | –
4 | C#CCOCc1ccc2c(c1)OCO2 [II-G] | 15 | – | – | – | – | – | – | Contact Synergistic Ratio, Carbaryl ([1]; LC50 carbaryl alone / LC50 with synergist, synergist to insecticide 5:1 by weight): 100
5 | C#CCOCc1ccc(Cl)c([N+](=O)[O-])c1 [II-M] | – | – | 3 | 47 | 2.1 | 47 | 2 | number of mice dead, with Dimetilan [2, 9]: 0; percent kill after 24 hours, synergist alone (GS 13005 part of Table XXXI) [3]: 10%; percent kill after 24 hours, with GS 13005 [3]: 79%; percent kill after 24 hours, with Mobam [3]: 90%; percent kill after 24 hours, synergist alone [3]: 10%; Mean Sleeping Time, Secobarbital (male mice; [8]): 29 min; Relative Sleeping Time, Secobarbital (male mice; synergist 74 mg/kg): 1.0; percent kill after 24 hours, with GS 13005 [4]: 63%; percent kill after 24 hours, synergist alone [4]: 0%
6 | C#CCOCc1ccc([N+](=O)[O-])cc1Cl [II-N] | – | – | 4 | 58 | 1.9 | 39 | 1.7 | number of mice dead, with Dimetilan [2, 9]: 0; percent kill after 24 hours, with GS 13005 [3]: 84%; percent kill after 24 hours, with Mobam [3]: 97%; Mean Sleeping Time, Secobarbital (male mice; [8]): 20 min; Relative Sleeping Time, Secobarbital (male mice; synergist 74 mg/kg): 1.0; percent kill after 24 hours, with GS 13005 [4]: 60%
7 | C#CCOCc1ccc([N+](=O)[O-])c(Cl)c1 [II-O] | – | – | 2 | 52 | 2.4 | 26 | 1.1 | number of mice dead, with Dimetilan [2, 9]: 0; percent kill after 24 hours, synergist alone (GS 13005 part of Table XXXI) [3]: 10%; percent kill after 24 hours, with GS 13005 [3]: 90%; percent kill after 24 hours, with Mobam [3]: 60%; percent kill after 24 hours, synergist alone [3]: 10%; percent kill after 24 hours, with GS 13005 [4]: 47%; percent kill after 24 hours, synergist alone [4]: 3%
8 | C#CCn1ncc2cc([N+](=O)[O-])ccc21 [III-A] | 30 | 143 | 0 | 32 | 1.0 | 50 | 1.1 | –
9 | C#CCn1nc(Cl)c2ccccc21 [III-B] | 30 | 117 | 0 | 46 | 1.0 | 66 | 1.3 | –
10 | C#CCn1nc(Cl)c2ccc([N+](=O)[O-])cc21 [III-C, N-(2-propynyl)-3-chloro-6-nitroindazole] | 10 | 53 | – | – | – | – | – | –
11 | C#CCOC(c1cccc2ccccc12)C(C)[N+](=O)[O-] (stereo not drawn) [IV-B, 2-propynyl 1-naphthyl-2-nitropropyl ether] | 10 | 50 | – | – | – | – | – | –
12 | Cc1cc(OC(=O)N(C)C)n(-c2ccccc2)n1 [Pyrolan, 3-methyl-1-phenyl-5-pyrazolyl-N-dimethylcarbamate, reference compound] | – | – | – | – | – | – | – | LC50 of insecticide alone ([1]; Wilson strain fly, 24-hour kill, no synergist): 0.15 mg/jar; 24 hour percent mortality, Pyrolan alone ([3]; Pyrolan 0.63 μg/fly): 0%
